Measured values reported in US20040053270A1, “RNA binding compounds and uses thereof” (priority 2000, published 2004).

Tested on: E. coli ribosomes
Conditions: 20 nM competitor, 20 nM oxazolidinone-TAMRA reporter
Procedure: The interaction between oxazolidinone-TAMRA and E. coli ribosomes was monitored by comparing the change in fluorescence anisotropy in the presence and absence of 100 μM non-fluorescent oxazolidinone competitor. Each measurement was made in a 400 μl cuvette, in a Perkin Elmer LS50B fluorimeter. Increasing amounts of ribosomes (corresponding to the amounts shown in FIG. 6) were added to a solution of 20 nM oxazolidinone-TAMRA in the presence of 50 mM Tris.HCl pH 7.5, 70 mM NH4Cl, 30 mM KCl, 7 mM MgCl2, 1 mM DTT, 0.5 mM EDTA. For each titration point an anisotropy measurement was acquired using an excitation wavelength of 554 nm with the excitation slits set to 10 nm and an emission wavelength of 575 nm with the emission slits set to 10 nm.
The same experiment was performed, but using 20 nM non-fluorescent linezolid (an oxazolidinone) as the competitor.

CC(=O)NC[C@H]1CN(c2ccc(N3CCOCC3)c(F)c2)C(=O)O1 [linezolid]
anisotropy upon addition of the ribosomes in the presence of competitor: considerably reduced
